Data as given in the NIST ThermoML archive (doi:10.1016/j.jct.2007.01.009).
Numbers after ± are expanded uncertainties.

Experiment: xn = mol fraction of the nth substance listed
Conditions: 101 kPa, Liquid, Pycnometric method

CCCCC(O)CO (configuration not stated) [1,2-hexanediol] + O
mass density [kg/m3]
Conditions | 283.15 K | 288.15 K | 293.15 K | 298.15 K | 303.15 K | 308.15 K
x1 = 0.0009 | 999.77 ± 0.31 | 999.33 ± 0.3 | 998.26 ± 0.28 | 997.06 ± 0.29 | 995.65 ± 0.3 | 993.92 ± 0.32
x1 = 0.0018 | 999.85 ± 0.31 | 999.35 ± 0.29 | 998.28 ± 0.28 | 997.06 ± 0.29 | 995.66 ± 0.3 | 993.92 ± 0.31
x1 = 0.0036 | 1000.05 ± 0.31 | 999.43 ± 0.29 | 998.39 ± 0.28 | 997.13 ± 0.29 | 995.76 ± 0.3 | 993.98 ± 0.32
x1 = 0.0055 | 1000.31 ± 0.31 | 999.57 ± 0.3 | 998.54 ± 0.29 | 997.24 ± 0.3 | 995.78 ± 0.31 | 994.13 ± 0.32
x1 = 0.0077 | 1000.69 ± 0.31 | 999.81 ± 0.3 | 998.75 ± 0.29 | 997.43 ± 0.3 | 995.64 ± 0.31 | 994.227 ± 0.32
x1 = 0.009 | 1000.93 ± 0.32 | 999.97 ± 0.3 | 998.86 ± 0.29 | 997.49 ± 0.3 | 995.53 ± 0.31 | 994.278 ± 0.32
x1 = 0.0106 | 1001.22 ± 0.31 | 1000.16 ± 0.3 | 998.97 ± 0.29 | 997.52 ± 0.3 | 995.37 ± 0.31 | 994.276 ± 0.32
x1 = 0.0124 | 1001.49 ± 0.31 | 1000.33 ± 0.3 | 999.03 ± 0.29 | 997.47 ± 0.3 | 995.17 ± 0.31 | 994.141 ± 0.32
x1 = 0.0143 | 1001.65 ± 0.31 | 1000.41 ± 0.3 | 999.01 ± 0.29 | 997.32 ± 0.3 | 994.93 ± 0.31 | 993.817 ± 0.33
x1 = 0.016 | 1001.69 ± 0.31 | 1000.38 ± 0.3 | 998.91 ± 0.29 | 997.13 ± 0.3 | 994.7 ± 0.31 | 993.395 ± 0.34
x1 = 0.0178 | 1001.64 ± 0.31 | 1000.25 ± 0.3 | 998.73 ± 0.29 | 996.87 ± 0.31 | 994.45 ± 0.31 | 992.869 ± 0.34
x1 = 0.0351 | 999.52 ± 0.32 | 997.75 ± 0.31 | 995.76 ± 0.3 | 993.77 ± 0.31 | 991.54 ± 0.32 | 988.24 ± 0.33
x1 = 0.0672 | 995.27 ± 0.33 | 993.06 ± 0.32 | 990.72 ± 0.31 | 988.37 ± 0.32 | 985.8 ± 0.33 | 981.847 ± 0.34
x1 = 0.0968 | 991.84 ± 0.34 | 989.37 ± 0.32 | 986.7 ± 0.31 | 983.93 ± 0.32 | 981.37 ± 0.33 | 977.569 ± 0.34
x1 = 0.1119 | 990.47 ± 0.34 | 987.91 ± 0.33 | 985.24 ± 0.32 | 982.11 ± 0.33 | 979.56 ± 0.34 | 975.746 ± 0.35

CC(O)CCCCO (configuration not stated) [1,5-hexanediol] + O
mass density [kg/m3]
Conditions | 283.15 K | 288.15 K | 293.15 K | 298.15 K | 303.15 K | 308.15 K
x1 = 0.001 | 999.62 ± 0.31 | 999.01 ± 0.29 | 998.08 ± 0.28 | 996.9 ± 0.29 | 995.49 ± 0.3 | 993.87 ± 0.32
x1 = 0.0021 | 999.54 ± 0.31 | 998.92 ± 0.29 | 997.97 ± 0.28 | 996.78 ± 0.29 | 995.34 ± 0.31 | 993.69 ± 0.32
x1 = 0.0037 | 999.45 ± 0.35 | 998.83 ± 0.29 | 997.87 ± 0.28 | 996.64 ± 0.29 | 995.17 ± 0.31 | 993.47 ± 0.36
x1 = 0.0053 | 999.39 ± 0.3 | 998.77 ± 0.29 | 997.8 ± 0.28 | 996.54 ± 0.29 | 995.05 ± 0.3 | 993.32 ± 0.32
x1 = 0.0071 | 999.38 ± 0.31 | 998.74 ± 0.29 | 997.74 ± 0.28 | 996.46 ± 0.29 | 994.97 ± 0.3 | 993.19 ± 0.49
x1 = 0.0089 | 999.41 ± 0.31 | 998.73 ± 0.29 | 997.7 ± 0.28 | 996.4 ± 0.29 | 994.91 ± 0.3 | 993.09 ± 0.32
x1 = 0.0111 | 999.49 ± 0.31 | 998.75 ± 0.29 | 997.68 ± 0.28 | 996.36 ± 0.29 | 994.86 ± 0.3 | 992.99 ± 0.32
x1 = 0.0145 | 999.68 ± 0.31 | 998.84 ± 0.29 | 997.7 ± 0.28 | 996.34 ± 0.29 | 994.79 ± 0.3 | 992.85 ± 0.32
x1 = 0.0194 | 1000.04 ± 0.31 | 999.07 ± 0.3 | 997.8 ± 0.28 | 996.37 ± 0.29 | 994.7 ± 0.3 | 992.68 ± 0.32
x1 = 0.0324 | 1001.21 ± 0.31 | 999.91 ± 0.3 | 998.22 ± 0.28 | 996.47 ± 0.3 | 994.45 ± 0.31 | 992.23 ± 0.32
x1 = 0.0507 | 1002.48 ± 0.31 | 1000.63 ± 0.3 | 998.55 ± 0.29 | 996.31 ± 0.3 | 994.04 ± 0.31 | 991.47 ± 0.32
x1 = 0.0738 | 1002.95 ± 0.31 | 1000.72 ± 0.3 | 998.24 ± 0.29 | 995.66 ± 0.3 | 993.05 ± 0.31 | 990.3 ± 0.32
